{"source": "patent US12416052B2", "about": "“Capturing, concentrating, and detecting microbes in a sample using magnetic ionic liquids and recombinase polymerase amplification” (priority 2019, dated 2025)", "key": {"[1]": {"system": "E. coli O157:H7 N366-2-2", "assay": "MIL-based whole-cell extraction", "parameters": "species or system Escherichia coli", "details": "1×10^6 CFU mL^−1 in TSB, 15 μL MIL", "experimental": "(§1) A universal schematic for MIL-based cell extraction is depicted in FIG. 7B. A 1 mL volume of diluted cell suspension was added to a flat-bottomed 4-mL screw cap glass vial. Fifteen microliters of either the Ni(II) or Dy(III) MIL was added and dispersed into microdroplets by vortex agitation for 30 s. The aqueous phase was decanted following dispersive extraction, and the MIL was subjected to a brief wash step using 1 mL of nuclease-free water (Integrated DNA Technologies, Coralville, IA, USA) to ensure adequate removal of loosely or incidentally bound cells. After washing, release of viable cells from the MIL extraction phase was carried out using a “back-extraction” step accomplished through addition of 1 mL of an ionically-rich nutritive medium comprised of 20 g L^−1 tryptone and 10 g L^−1 NaCl, followed by a 120 s vortex step. After back-extraction, aliquots of the cell-enriched back-extraction medium were enumerated using the track dilution method using 100×100 mm square, gridded TSA, BSA, CA or VRBGA plates.\n(§2) Following back-extraction, aliquots of the cell-enriched back-extraction medium were serially diluted in 0.1% peptone water and a 10 μL aliquot of each dilution was applied to a separate lane on square plates containing an appropriate agar medium. The plates were then tilted at an approximately 80° angle for 15 min to allow the droplets to travel toward the opposite end of the plate. The plates were incubated for 24 h at 37° C. (TSA, VRBGA), for 48 h at 37° C. (BSA) or for 24 h at 37° C. (CA). Colonies were counted and colony forming units (CFU) were determined. The enrichment factor (EF) for MIL-based extraction was calculated using Equation 1, where CMIL represents the concentration of bacteria in suspension following extraction using the MIL and CS is the initial concentration of bacteria in the sample.\n(§3) In order to explore the broader utility of our approach, evaluation of additional cell types is needed. We began this extended evaluation of the Ni(II) MIL with seven representative DNA subgroups of Salmonella and eight strains of E. coli O157:H7. Briefly, a 1 mL aliquot of TSB was inoculated with 1×10^6 CFU mL^−1 of bacteria, and spiked with 15 μL of the Ni(II) MIL. MIL-based extraction was performed and 10 μL aliquots of the back-extraction solution were enumerated using TSA and BSA plates (Salmonella) or TSA plates (E. coli O157:H7). […] We later determined that VRBGA was a suitable common medium for this purpose and used this in our statistical analysis. Average CFU counts were compared to standards that were not exposed to the Ni(II) MIL. Enrichment factors were calculated for Salmonella on both non-selective (TSA) and selective agars (BSA) and for E. coli O157:H7 on non-selective agar (TSA). […] Note: As BSA is a Salmonella-specific agar E. coli O157:H7 was not plated to BSA in this example."}, "[2]": {"system": "E. coli O157:H7 N192-5-1", "assay": "MIL-based whole-cell extraction", "parameters": "species or system Escherichia coli", "details": "1×10^6 CFU mL^−1 in TSB, 15 μL MIL", "experimental": "as §1, §2, §3"}, "[3]": {"system": "E. coli O157:H7 N317-3-1", "assay": "MIL-based whole-cell extraction", "parameters": "species or system Escherichia coli", "details": "1×10^6 CFU mL^−1 in TSB, 15 μL MIL", "experimental": "as §1, §2, §3"}, "[4]": {"system": "E. coli O157:H7 N192-6-1", "assay": "MIL-based whole-cell extraction", "parameters": "species or system Escherichia coli", "details": "1×10^6 CFU mL^−1 in TSB, 15 μL MIL", "experimental": "as §1, §2, §3"}, "[5]": {"system": "S. typhimurium ATCC 14028", "assay": "Exposure of cells and plating on non-selective (TSA) and selective (BSA) agar (viability, injury, toxicity)", "type": "cell-based, Salmonella enterica", "details": "exposure 0 to 15 min, 15 μL MIL", "experimental": "To examine whether exposure time to the Ni(II) MIL affected cell viability, MIL-based whole-cell extraction was performed using the Ni(II) MIL, and cell-enriched back-extraction media were enumerated at 0, 5, 10 and 15 min on both TSA and BSA. To evaluate toxicity of the [EMIM^+][SCN^−] IL, one milliliter of diluted S. typhimurium ATCC 14028 cell suspension was added to a 4-mL screw cap glass vial. A 5% (vol/vol) or 50% (vol/vol) aqueous solution of 1-ethyl-3-methylimidazolium thiocyanate (“[EMIM^+][SCN^−]”) (IoLiTec, Tuscaloosa, AL, USA) was added and mixed by vortexing for 30 s. Aliquots were enumerated at 0, 5, 10 and 15 min using TSA and BSA.\nOne milliliter of diluted S. typhimurium ATCC 14028 cell suspension was added to a 4-mL screw cap glass vial. Fifteen microliters of either the Dy(III) MIL or 2-10 μL of 100 mM DyCh solution or 10 mg of the ammonium tetra(hexafluoroaceto)dysprosium salt (15) ([NH4^+][Dy(hfacac)4^−]) (“Dy(III) ammonium salt”) was added and dispersed by vortex agitation for 30 s. Aliquots of the Dy(III) MIL- or Dy(III) ammonium salt-exposed cell suspension were enumerated using square TSA or BSA plates (BD).\nBecause culture-based methods depend on sample preparation steps that preserve bacterial viability, potential deleterious cytotoxic effects imparted by MIL extractants must be considered. To begin our further study of MIL-bacterial interactions, we selected S. typhimurium ATCC 14028 as a model gram-negative pathogen and the Ni(II) MIL as extractant. Briefly, a 1 mL aliquot of TSB was inoculated with 1×10^5 CFU mL^−1 of bacteria and spiked with 15 μL of the Ni(II) MIL, and the general schematic for MIL-based extraction and recovery followed as shown in FIG. 7B. After extraction, 10 μL aliquots of the back-extraction solution were enumerated at 0, 5, 10 and 15 min using TSA and BSA. Average CFU counts were compared to a standard that was not exposed to the Ni(II) MIL. […] To better understand the data in FIG. 8, statistical analyses of Ni(II) MIL capture precision and CFU count variation as a function of MIL exposure time were performed. Variation in MIL capture may stem from inherent randomness of MIL dispersion and coalescence behaviors.\nThe effects of 5% or 50% (vol/vol) aqueous solutions of the [EMIM^+][SCN^−] IL on the viability of the cells were also evaluated. Average CFU counts were compared to a standard not exposed to [EMIM^+][SCN^−]. In our hands, when S. typhimurium was exposed to 50% (vol/vol) solutions of [EMIM^+][SCN^−], no recovery was observed on either TSA or BSA after 5 min of exposure.\nTo gain further insight into this phenomenon, the effect of free elemental dysprosium was evaluated by subjecting the cells to 0.1 mM and 1.0 mM solutions of DyCl3. The cells were exposed to the metal salt solutions for 30 s and subsequently plated on selective and non-selective media.\nWhile the metal did show cytotoxicity, it cannot be completely responsible for the Dy(III) MIL's effect on the cells, as no flocculation was seen and growth was still observed. Since both the Ni(II) and the Dy(III) MILs contain identical cations ([P6,6,6,14^+]), the role of the anion structure was evaluated. The anion of the Dy(III) MIL contains one additional hexafluoroacetylacetonate ligand than the Ni(II) MIL (FIG. 7), making the coordination geometry of the two complexes different. To test the effects of the anion structure, cells were subjected to 10 mg of the Dy(III) ammonium salt. After a 30 second vortex, similar flocculation was observed as when the cells were exposed to the native Dy(III) MIL."}}, "note": "“Also recorded” adds a separate entry of the source."}
{"smiles": "CCCCCCCCCCCCCC[P+](CCCCCC)(CCCCCC)CCCCCC.O=C([CH-]C(=O)C(F)(F)F)C(F)(F)F.O=C([CH-]C(=O)C(F)(F)F)C(F)(F)F.O=C([CH-]C(=O)C(F)(F)F)C(F)(F)F.[Ni+2]", "note": "[Ni(II) MIL, [P66614^+][Ni(hfacac)3^−]]", "values": [{"measurement": "Enrichment Factor (TSA)", "setting": "[1]", "value": 4}, {"measurement": "Enrichment Factor (TSA)", "setting": "[2]", "value": 7}, {"measurement": "Enrichment Factor (TSA)", "setting": "[3]", "value": 4}, {"measurement": "Enrichment Factor (TSA)", "setting": "[4]", "value": 9}, {"measurement": "injury to S. typhimurium: average CFU counts on TSA and BSA", "setting": "[5]", "value": "did not cause detectable injury; also recorded: appeared to be similar"}]}
